Reference: ChEMBL document CHEMBL1151129, “Two new bioactive carbazole alkaloids from the root bark of Clausena harmandiana” (J Nat Prod, 1988)
Values after ≈ are worked out from the molar mass of the structure shown.

How the values were obtained:
[1] = Cytotoxicity against mouse 9PS cells; format: functional; conditions: read-out: ED50 (the source's name)
Artemia = assay: Toxicity to brine shrimp; format: organism-based; conditions: in vivo
[2] = Cytotoxicity against human 9KB cells; format: functional; conditions: read-out: ED50 (the source's name)
[3] = Cytotoxicity against human KBMRI cells; format: functional; conditions: read-out: ED50 (the source's name)
A549 = assay: Cytotoxicity against human A549 cells; format: functional; conditions: read-out: ED50 (the source's name)
HT-29 = assay: Cytotoxicity against human HT-29 cells; format: functional; conditions: read-out: ED50 (the source's name)

SMILES | EC50 [1] [µg/mL] | LC50 (Artemia) [ppm] | EC50 [2] [µg/mL] | EC50 [3] [µg/mL] | EC50 (A549) [µg/mL] | EC50 (HT-29) [µg/mL]
COc1ccc2c(c1)[nH]c1cc(O)c(C=O)cc12 | > 10 | 35 | 5.7 (≈ 23.6 µM) | 4.48 (≈ 18.6 µM) | 2.74 (≈ 11.4 µM) | 4 (≈ 16.6 µM)
COc1ccc2c(c1)[nH]c1c(CC=C(C)C)c(O)c(C=O)cc12 | > 10 | > 500 | 3.01 (≈ 9.73 µM) | 2.87 (≈ 9.28 µM) | 2.16 (≈ 6.98 µM) | 1.36 (≈ 4.4 µM)
